The values below come from paper PMC7730235, “Discovery of a Novel Class of Covalent Dual Inhibitors Targeting the Protein Kinases BMX and BTK” (International Journal of Molecular Sciences, 2020).

Molecules are shown by their SMILES.

Assay [1] addresses T1, BTK (Homo sapiens, UniProt Q06187).
T1 construct: purchased Reaction Biology Corporation
Put plainly: Radiometric kinase assay (Reaction Biology HotSpot). The assay is classed as biochemical. As to conditions: [ATP] = 10 μM; for remaining activity at 0.2 µM: read-out: Residual Activity @ 200 nM, BTK. On the procedure:
(§1) If not mentioned differently, in vitro profiling of compounds was performed at Reaction Biology Corporation using the HotSpot™ assay platform.

The target in assay [2] is T2, MKK7 (Homo sapiens, UniProt O14733).
T2 construct: purchased Reaction Biology Corporation
T2 sequence (O14733 1-419): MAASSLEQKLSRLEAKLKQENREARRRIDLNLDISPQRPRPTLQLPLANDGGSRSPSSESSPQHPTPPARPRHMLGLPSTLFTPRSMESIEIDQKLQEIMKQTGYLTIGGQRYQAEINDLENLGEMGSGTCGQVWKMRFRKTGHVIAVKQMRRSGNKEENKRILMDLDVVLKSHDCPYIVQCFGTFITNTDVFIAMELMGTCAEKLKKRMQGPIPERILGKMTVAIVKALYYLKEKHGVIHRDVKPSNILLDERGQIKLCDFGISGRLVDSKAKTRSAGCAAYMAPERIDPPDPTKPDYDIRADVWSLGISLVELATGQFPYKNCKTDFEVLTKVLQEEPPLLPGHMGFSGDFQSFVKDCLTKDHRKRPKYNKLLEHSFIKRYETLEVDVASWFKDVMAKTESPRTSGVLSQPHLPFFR
The assay is described as above. The format is biochemical. As to conditions: 200 nM compound, duplicate mean, [ATP] = 10 μM; read-out: Residual Activity @ 200 nM, MKK7. The method, then: as §1

In assay [3] the target is T3, Full length BMX (C-terminal NanoLuc fusion) (Homo sapiens, UniProt P51813).
T3 construct: Full length BMX and BTK was cloned into pFC32K; expressed in transfected cells; host or cells: HEK293T
T3 sequence (P51813 1-675): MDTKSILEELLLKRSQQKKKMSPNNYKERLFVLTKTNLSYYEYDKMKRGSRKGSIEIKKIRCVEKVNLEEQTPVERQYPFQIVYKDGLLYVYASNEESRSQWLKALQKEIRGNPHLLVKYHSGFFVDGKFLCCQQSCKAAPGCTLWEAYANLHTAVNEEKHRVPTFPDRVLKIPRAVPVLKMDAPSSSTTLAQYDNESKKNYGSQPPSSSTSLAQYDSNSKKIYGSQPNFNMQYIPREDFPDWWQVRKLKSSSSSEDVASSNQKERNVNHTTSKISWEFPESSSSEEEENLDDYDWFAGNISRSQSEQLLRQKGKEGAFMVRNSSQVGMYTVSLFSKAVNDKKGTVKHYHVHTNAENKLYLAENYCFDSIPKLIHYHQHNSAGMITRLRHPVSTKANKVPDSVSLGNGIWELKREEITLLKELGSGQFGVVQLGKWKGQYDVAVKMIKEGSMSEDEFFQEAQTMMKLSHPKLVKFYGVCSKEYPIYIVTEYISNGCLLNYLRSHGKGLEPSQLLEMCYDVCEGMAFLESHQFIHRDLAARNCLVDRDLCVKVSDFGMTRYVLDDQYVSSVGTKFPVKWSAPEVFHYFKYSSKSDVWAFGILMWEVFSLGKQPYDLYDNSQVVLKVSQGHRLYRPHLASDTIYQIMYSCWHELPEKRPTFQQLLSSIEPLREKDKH
The assay is described as follows: Cellular NanoBRET target engagement assay in HEK293T cells. The assay is classed as cell-based. The note with it: 0.5 µM Tracer K4, 2 h incubation. The method, then:
(§2) Full length BMX and BTK was cloned into pFC32K (Promega, Madison, WI, USA) for expression of a C-terminal NanoLuc fusion. The plasmids were transfected into HEK293T cells cultured in DMEM (Gibco, Waltham, MA, USA) supplemented with 10% fetal bovine serum (Gibco, Waltham, MA, USA) and Penicillin/Streptamycin (Gibco, Waltham, MA, USA). NanoBRET assays were performed using the protocol published previously. Briefly, after transfection and 20 h incubation cells were harvested and subsequently resuspended in OptiMEM (Gibco, Waltham, MA, USA). Cells were aliquoted onto […] (Greiner, Kremsmünster, Austria), and inhibitors as well as 0.5 µM Tracer K4 (Promega) for BMX or 0.5 µM Tracer K5 (Promega, Madison, WI, USA) for BTK were added using an ECHO acoustic dispenser. The plates were incubated at 37 °C with 5% CO2 for 2 h prior to the addition of both NanoBRET NanoGlo substrate (Promega, Madison, WI, USA) and extracellular NanoLuc inhibitor. BRET luminescence (450 nm for donor emission and 610 nm for BRET signal) was measured using PHERAstar FSX plate reader (BMG Labtech, Ortenberg, Germany). Milli-BRET units (mBU) were calculated as a ratio between BRET signal and the overall measured luminescence. A dose–response fitting was applied and IC50 values were calculated using the Prism software. […] Experiments were performed as tripicates and repeated at least three times.
For orientation: BRET reads energy transfer from a luciferase to a nearby fluorophore.

The target in assay [4] is T4, Full length BTK (C-terminal NanoLuc fusion) (Homo sapiens, UniProt Q06187).
T4 construct: Full length BMX and BTK was cloned into pFC32K; expressed in transfected cells; host or cells: HEK293T
The assay is described as above. The format is cell-based. As to conditions: 0.5 µM Tracer K5, 2 h incubation. On the procedure:
as §2

Assay [5] addresses T5, kinase domain of BMX (Homo sapiens, UniProt P51813).
T5 construct: The kinase domains of JAK3 and BMX at 2 μM
Put plainly: Mass spectrometric investigation of covalent binding to BMX (ESI-TOF). As to conditions: 4 °C; for BMX covalent adduct fraction, 30 min / BMX covalent adduct fraction, 60 min / BMX covalent adduct fraction, 120 min / BMX covalent adduct fraction, 240 min / native (unmodified) BMX fraction, 30 min / native (unmodified) BMX fraction, 60 min / native (unmodified) BMX fraction, 120 min / native (unmodified) BMX fraction, 240 min: 1.5-fold molar excess of inhibitor; for covalent labeling of BMX (in words): complete labeling refers to 30 min. The method, then:
The kinase domain of BMX was diluted to 0.05 mM with buffer containing 20 mM Tris pH 8.0, 200 mM NaCl, 0.5 mM TCEP (pH 7.0) and was subsequently mixed with 0.075 mM inhibitors (ratio of protein to inhibitor of 1:1.5). The mixture was incubated at 4°C. The samples were taken at different time points, the reaction stopped by diluting the sample with a 200-fold excess of 1% formic acid. The denatured protein and the adducts were assessed using electrospray time-of-flight (ESI-TOF) mass spectrometry.

In assay [6] the target is T6, JAK1 (Homo sapiens, UniProt P23458).
T6 construct: purchased Reaction Biology Corporation
Put plainly: Radiometric kinase assay (Reaction Biology HotSpot). The assay is classed as biochemical. The note with it: five-dose singlicate, [ATP] = 10 μM. The method, then:
as §1

Assay [7] addresses T7, JAK2 (Homo sapiens, UniProt O60674).
T7 construct: purchased Reaction Biology Corporation
The description is as above. The format is biochemical. The note with it: five-dose singlicate, [ATP] = 10 μM. On the procedure: as §1

The target in assay [8] is T8, TYK2 (Homo sapiens, UniProt P29597).
T8 construct: purchased Reaction Biology Corporation
The assay is described as above. The assay is classed as biochemical. The note with it: five-dose singlicate, [ATP] = 10 μM. On the procedure:
as §1

Where [9] appears, read: 200 nM compound, duplicate mean.

T4 sequence (Q06187 whole entry, the tested form may be a part): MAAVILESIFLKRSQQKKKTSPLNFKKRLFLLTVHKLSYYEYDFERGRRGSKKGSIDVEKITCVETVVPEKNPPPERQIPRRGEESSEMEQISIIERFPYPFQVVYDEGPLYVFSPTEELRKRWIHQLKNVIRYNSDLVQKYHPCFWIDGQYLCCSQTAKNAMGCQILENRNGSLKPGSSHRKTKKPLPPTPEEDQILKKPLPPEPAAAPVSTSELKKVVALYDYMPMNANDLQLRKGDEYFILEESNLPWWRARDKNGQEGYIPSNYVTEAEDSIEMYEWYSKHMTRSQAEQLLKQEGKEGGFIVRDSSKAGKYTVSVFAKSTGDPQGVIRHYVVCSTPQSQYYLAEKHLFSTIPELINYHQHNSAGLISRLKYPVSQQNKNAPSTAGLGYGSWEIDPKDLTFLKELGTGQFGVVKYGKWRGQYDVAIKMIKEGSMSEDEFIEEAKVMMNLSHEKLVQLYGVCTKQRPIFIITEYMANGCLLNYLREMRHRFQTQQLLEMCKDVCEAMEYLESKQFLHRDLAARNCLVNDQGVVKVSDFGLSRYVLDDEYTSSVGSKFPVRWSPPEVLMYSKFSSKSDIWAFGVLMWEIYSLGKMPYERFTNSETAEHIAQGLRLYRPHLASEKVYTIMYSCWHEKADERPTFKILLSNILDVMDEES
T1 sequence (Q06187 whole entry): as the sequence (Q06187 whole entry, the tested form may be a part) above
T6 sequence (P23458 whole entry): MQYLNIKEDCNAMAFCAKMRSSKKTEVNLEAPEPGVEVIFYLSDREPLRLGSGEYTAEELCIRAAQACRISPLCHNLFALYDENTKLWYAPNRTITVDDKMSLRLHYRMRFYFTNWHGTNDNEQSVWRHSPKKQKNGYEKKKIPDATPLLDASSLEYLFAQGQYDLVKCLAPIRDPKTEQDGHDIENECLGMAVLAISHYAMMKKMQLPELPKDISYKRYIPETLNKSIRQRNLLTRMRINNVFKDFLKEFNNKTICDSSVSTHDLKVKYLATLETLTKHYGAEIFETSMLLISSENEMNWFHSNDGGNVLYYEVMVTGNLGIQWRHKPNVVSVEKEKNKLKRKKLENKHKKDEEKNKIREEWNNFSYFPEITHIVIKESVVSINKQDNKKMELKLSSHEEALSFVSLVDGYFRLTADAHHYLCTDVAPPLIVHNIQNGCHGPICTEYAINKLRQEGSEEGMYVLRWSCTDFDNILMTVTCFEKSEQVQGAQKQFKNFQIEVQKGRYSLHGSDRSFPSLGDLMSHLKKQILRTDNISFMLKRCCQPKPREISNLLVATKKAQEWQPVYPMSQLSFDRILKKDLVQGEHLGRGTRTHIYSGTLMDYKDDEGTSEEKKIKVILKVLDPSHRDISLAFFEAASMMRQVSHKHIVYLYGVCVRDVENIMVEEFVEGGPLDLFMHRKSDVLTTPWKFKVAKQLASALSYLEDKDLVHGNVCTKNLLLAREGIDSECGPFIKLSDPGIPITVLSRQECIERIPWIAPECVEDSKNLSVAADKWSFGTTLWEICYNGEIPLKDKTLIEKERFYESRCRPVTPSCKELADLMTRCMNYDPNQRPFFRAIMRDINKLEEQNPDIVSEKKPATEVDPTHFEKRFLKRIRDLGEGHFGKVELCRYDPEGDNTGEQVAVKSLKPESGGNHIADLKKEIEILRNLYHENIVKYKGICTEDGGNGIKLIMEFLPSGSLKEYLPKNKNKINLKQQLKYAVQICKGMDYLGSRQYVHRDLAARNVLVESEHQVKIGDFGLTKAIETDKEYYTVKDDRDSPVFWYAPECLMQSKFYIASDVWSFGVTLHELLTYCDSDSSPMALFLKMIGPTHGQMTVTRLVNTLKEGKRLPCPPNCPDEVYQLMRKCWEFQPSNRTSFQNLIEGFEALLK
T7 sequence (O60674 whole entry): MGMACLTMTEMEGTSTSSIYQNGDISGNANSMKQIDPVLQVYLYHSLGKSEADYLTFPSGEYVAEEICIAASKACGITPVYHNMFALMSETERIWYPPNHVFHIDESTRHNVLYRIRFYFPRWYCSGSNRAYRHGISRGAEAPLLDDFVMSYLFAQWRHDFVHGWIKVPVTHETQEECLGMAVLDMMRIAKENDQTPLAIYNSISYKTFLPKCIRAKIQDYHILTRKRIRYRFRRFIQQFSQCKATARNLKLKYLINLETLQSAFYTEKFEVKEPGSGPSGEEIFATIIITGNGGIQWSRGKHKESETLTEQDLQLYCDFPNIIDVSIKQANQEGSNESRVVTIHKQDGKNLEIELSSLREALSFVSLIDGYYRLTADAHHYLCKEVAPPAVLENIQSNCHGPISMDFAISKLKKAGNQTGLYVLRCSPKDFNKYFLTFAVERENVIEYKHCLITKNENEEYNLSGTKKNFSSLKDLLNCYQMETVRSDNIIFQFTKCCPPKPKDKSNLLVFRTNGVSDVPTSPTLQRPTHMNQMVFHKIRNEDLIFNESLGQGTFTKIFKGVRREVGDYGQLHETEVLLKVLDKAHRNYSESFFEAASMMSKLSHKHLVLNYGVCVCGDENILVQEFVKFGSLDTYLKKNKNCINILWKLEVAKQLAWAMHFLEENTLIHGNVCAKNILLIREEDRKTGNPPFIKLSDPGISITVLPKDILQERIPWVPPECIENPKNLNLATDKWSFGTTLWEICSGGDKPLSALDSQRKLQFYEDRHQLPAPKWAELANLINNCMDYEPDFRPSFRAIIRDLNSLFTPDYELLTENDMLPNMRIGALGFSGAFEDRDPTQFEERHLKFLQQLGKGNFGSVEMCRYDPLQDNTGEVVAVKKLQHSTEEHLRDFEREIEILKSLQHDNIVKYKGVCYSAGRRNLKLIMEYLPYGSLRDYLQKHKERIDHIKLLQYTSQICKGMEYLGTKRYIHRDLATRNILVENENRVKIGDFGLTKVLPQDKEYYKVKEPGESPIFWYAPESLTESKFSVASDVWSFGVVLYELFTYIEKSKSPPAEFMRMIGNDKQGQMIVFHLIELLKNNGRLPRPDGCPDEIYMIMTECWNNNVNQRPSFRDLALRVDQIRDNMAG
T8 sequence (P29597 whole entry): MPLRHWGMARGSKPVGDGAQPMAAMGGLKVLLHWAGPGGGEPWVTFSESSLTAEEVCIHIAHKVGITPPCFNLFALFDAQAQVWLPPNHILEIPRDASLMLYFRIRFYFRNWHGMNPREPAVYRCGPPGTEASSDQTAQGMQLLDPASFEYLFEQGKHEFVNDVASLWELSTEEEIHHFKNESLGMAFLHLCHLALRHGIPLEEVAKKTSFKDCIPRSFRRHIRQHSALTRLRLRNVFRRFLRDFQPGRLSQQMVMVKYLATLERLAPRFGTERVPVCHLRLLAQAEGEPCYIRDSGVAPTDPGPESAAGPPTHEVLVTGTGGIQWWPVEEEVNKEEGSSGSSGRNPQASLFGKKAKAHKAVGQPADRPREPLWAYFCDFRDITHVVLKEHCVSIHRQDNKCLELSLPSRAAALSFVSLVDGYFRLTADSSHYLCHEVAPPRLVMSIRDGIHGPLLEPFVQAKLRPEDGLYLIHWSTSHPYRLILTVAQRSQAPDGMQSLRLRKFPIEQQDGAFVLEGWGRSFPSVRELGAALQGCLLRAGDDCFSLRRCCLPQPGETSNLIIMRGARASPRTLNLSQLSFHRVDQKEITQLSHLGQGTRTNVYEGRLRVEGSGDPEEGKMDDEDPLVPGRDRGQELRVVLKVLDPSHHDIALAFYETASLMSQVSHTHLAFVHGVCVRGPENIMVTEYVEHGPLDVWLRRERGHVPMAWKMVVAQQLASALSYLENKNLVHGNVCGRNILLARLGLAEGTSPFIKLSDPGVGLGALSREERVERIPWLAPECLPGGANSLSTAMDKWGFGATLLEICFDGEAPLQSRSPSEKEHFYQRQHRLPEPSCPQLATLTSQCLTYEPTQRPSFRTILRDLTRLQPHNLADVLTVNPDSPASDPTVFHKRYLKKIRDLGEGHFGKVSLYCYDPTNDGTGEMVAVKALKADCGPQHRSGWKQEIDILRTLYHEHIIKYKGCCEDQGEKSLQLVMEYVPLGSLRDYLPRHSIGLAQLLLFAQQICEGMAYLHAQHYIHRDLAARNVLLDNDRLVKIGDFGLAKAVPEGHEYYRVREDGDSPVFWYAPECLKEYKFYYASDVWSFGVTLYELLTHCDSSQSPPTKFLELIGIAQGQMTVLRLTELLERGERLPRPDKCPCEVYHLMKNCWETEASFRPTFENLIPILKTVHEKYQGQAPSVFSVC

As a reminder, the IC50 is the midpoint of a concentration-inhibition curve. With `C=CC(=O)Nc1cccc(-c2c[nH]c3ncc(NC(=O)c4cccs4)cc23)c1` [Compound 12c, N-(3-(3-acrylamidophenyl)-1H-pyrrolo[2,3-b]pyridin-5-yl)thiophene-2-carboxamide], the figures for the remaining activity at 0.2 µM in assay [1] (setting [9]) and in assay [2] were 0.8% and above 100%, respectively. The IC50 in assay [1] (radiometric HotSpot, five-dose singlicate) was below 1 nM; in assay [3] it was 3 ± 1 nM; in assay [4], 9 ± 1 nM. Also, the “BMX covalent adduct fraction, 30 min” value in assay [5] came to 100%. Besides, in assay [5], the “BMX covalent adduct fraction, 60 min” value is listed as 100%. For the same compound, in assay [5], the “BMX covalent adduct fraction, 120 min” value turned out to be 100%. Also, the “BMX covalent adduct fraction, 240 min” value in assay [5] turned out to be 100%. Also, in assay [5] (1.5-fold molar excess), the “covalent labeling of BMX (in words)” value is “complete labeling”.
Consider `CCC(=O)Nc1cccc(-c2c[nH]c3ncc(NC(=O)C4CCCC4)cc23)c1` [Compound 12b, N-(3-(3-propionamidophenyl)-1H-pyrrolo[2,3-b]pyridin-5-yl)cyclopentanecarboxamide], for which, in assay [1] (setting [9]), the “Residual Activity @ 200 nM, BTK” value is recorded as 69.7% and the remaining activity at 0.2 µM was determined as 70%. Further, the IC50 in assay [3] is above 10000 nM. Besides, the IC50 in assay [4] turned out to be 8210 ± 3460 nM. Moreover, in assay [5], the “native (unmodified) BMX fraction, 30 min” value was 100%; the “native (unmodified) BMX fraction, 60 min” value stood at 100%; the “native (unmodified) BMX fraction, 120 min” value came out at 100%; the “native (unmodified) BMX fraction, 240 min” value came out at 100%. Besides, the “covalent labeling of BMX (in words)” value in assay [5] (1.5-fold molar excess) is “no modification was detectable”.
Consider `C=CC(=O)Nc1cccc(-c2c[nH]c3ncc(C(N)=O)cc23)c1` [Compound 10a, 3-(3-acrylamidophenyl)-1H-pyrrolo[2,3-b]pyridine-5-carboxamide], for which the remaining activity at 0.2 µM in assay [1] (setting [9]) came to 18.9%; in assay [2], 28.3%. Further, the IC50 in assay [6] worked out at 460 nM; in assay [7], 1120 nM; in assay [8] it was 1900 nM; in assay [3], 765 ± 283 nM; in assay [4], 283 ± 24 nM. Also, the “BMX covalent adduct fraction, 30 min” value in assay [5] turned out to be 99%. For the same compound, in assay [5], the “BMX covalent adduct fraction, 60 min” value is 100%. In addition, the “BMX covalent adduct fraction, 120 min” value in assay [5] was determined as 100%. In assay [5], the “BMX covalent adduct fraction, 240 min” value is recorded as 100%. Also, the “covalent labeling of BMX (in words)” value in assay [5] (1.5-fold molar excess) is “complete labeling”.
As for `C=CC(=O)Nc1cccc(-c2c[nH]c3ncccc23)c1` [Compound 9a, N-(3-(1H-pyrrolo[2,3-b]pyridin-3-yl)phenyl)acrylamide], the results for the remaining activity at 0.2 µM in assay [1] (setting [9]) and in assay [2] were 18.2% and 37.3%, respectively. Also, the IC50 in assay [6] was 2970 nM; in assay [7], 3580 nM; in assay [8] it was 5540 nM; in assay [3], 26 ± 11 nM; in assay [4] it was 15 ± 2 nM. In addition, the “BMX covalent adduct fraction, 30 min” value in assay [5] came to 100%. Further, in assay [5], the “BMX covalent adduct fraction, 60 min” value was 100%. Further, the “BMX covalent adduct fraction, 120 min” value in assay [5] was determined as 100%. In addition, the “BMX covalent adduct fraction, 240 min” value in assay [5] was 100%. Moreover, in assay [5] (1.5-fold molar excess), the “covalent labeling of BMX (in words)” value is listed as “complete labeling”.
In assay [3], `C=CC(=O)Nc1cccc(-c2c[nH]c3ncc(C(=O)NC4CCCC4)cc23)c1` [Compound 11a, 3-(3-acrylamidophenyl)-N-cyclopentyl-1H-pyrrolo[2,3-b]pyridine-5-carboxamide] had an IC50 of 6070 ± 1830 nM. In addition, in assay [4], the IC50 worked out at 2070 ± 32 nM. For the same compound, in assay [5], the “BMX covalent adduct fraction, 30 min” value worked out at 60%; the “native (unmodified) BMX fraction, 30 min” value is listed as 40%; the “BMX covalent adduct fraction, 60 min” value was found to be 67%; the “native (unmodified) BMX fraction, 60 min” value stood at 33%. In addition, in assay [5], the “BMX covalent adduct fraction, 120 min” value is 89%; the “native (unmodified) BMX fraction, 120 min” value came out at 11%; the “BMX covalent adduct fraction, 240 min” value was found to be 97%; the “native (unmodified) BMX fraction, 240 min” value was 3%. Moreover, in assay [5] (1.5-fold molar excess), the “exposure required to approach full target modification” value amounted to 240 min.
